Experimental data as given in US4551547A, “Biocidal 2-aryl-1, 3-cyclopentanedione enol ester compounds” (Union Carbide Corporation, priority 1983, dated 1985).
In brackets after ≈: the same amount, converted by molar mass.

How the values were obtained:
Crabgrass = test: Preliminary herbicide seed germination test (pre-emergent), crabgrass; format: in vivo, Digitaria sanguinalis; parameters: key: 5: no seedling emerged; 4: few seedlings emerged and/or very severe stunting; 3: moderate reduction in stand and/or moderate stunting.; 2: very slight reduction in stand and/or slight stunting; 1: no injury, seedlings appear no different with respect to stand or growth than untreated controls; conditions: Table III; ten to twelve days after application
How it was run: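 Crabgrass (Digitaria sanguinalis) seed-soil mixtures in pots were drenched about 2 h after planting with 25 mL of compound suspension, diluted in water from an acetone/alkylphenoxyethanol-emulsified stock. Each compound was tested at the same ppm concentration. Solvent-emulsifier blanks served as controls; effects were rated visually.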

Perennial rye grass = test: Preliminary herbicide seed germination test (pre-emergent), perennial rye grass; format: in vivo, Solium perenne; parameters: key: 5: no seedling emerged; 4: few seedlings emerged and/or very severe stunting; 3: moderate reduction in stand and/or moderate stunting.; 2: very slight reduction in stand and/or slight stunting; 1: no injury, seedlings appear no different with respect to stand or growth than untreated controls; conditions: Table III; ten to twelve days after application
How it was run: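 Compounds formulated in acetone with alkylphenoxyethanol surfactant and diluted in water to ppm test levels. Perennial rye grass seed-soil mixtures potted and drenched with 25 mL formulation about 2 h after planting, in the greenhouse. Controls received solvent and emulsifier without compound, and pre-emergent effects were rated on a scale.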

[1] = system: Red root pigweed (Amaranthus); test: Preliminary herbicide seed germination test (pre-emergent), red root pigweed; format: in vivo, Amaranthus retroflexus; parameters: key: 5: no seedling emerged; 4: few seedlings emerged and/or very severe stunting; 3: moderate reduction in stand and/or moderate stunting.; 2: very slight reduction in stand and/or slight stunting; 1: no injury, seedlings appear no different with respect to stand or growth than untreated controls; conditions: Table III; ten to twelve days after application
How it was run: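 Pre-emergent pot test in the greenhouse with Amaranthus retroflexus seed mixed into soil. About 2 h after planting, 25 mL of aqueous formulation (diluted from a 0.5% w/w acetone/surfactant stock) was applied per pot, with concentration given in ppm. Solvent/emulsifier-only pots served as controls, and effects were scored on a rating scale.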

Tomato = test: Post-emergent herbicidal test, tomato; format: in vivo; parameters: key: 1: no perceptible injury; 2: intermediate degrees of injury; 3: intermediate degrees of injury; 4: intermediate degrees of injury; 5: the plant was dead; conditions: Table III; 2500 parts per million, after ten days
How it was run: (§1)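 Compounds dispersed in acetone/surfactant/water and sprayed at 2500 ppm onto foliage of healthy plants. Plants kept in greenhouse; foliar injury scored visually after ten days on a 1 (no injury) to 5 (dead) scale.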

Cotton = test: Post-emergent herbicidal test, cotton; format: in vivo; parameters: key: 1: no perceptible injury; 2: intermediate degrees of injury; 3: intermediate degrees of injury; 4: intermediate degrees of injury; 5: the plant was dead; conditions: Table III; 2500 parts per million, after ten days
How it was run: as §1

Bean = test: Post-emergent herbicidal test, bean; format: in vivo; parameters: key: 1: no perceptible injury; 2: intermediate degrees of injury; 3: intermediate degrees of injury; 4: intermediate degrees of injury; 5: the plant was dead; conditions: Table III; 2500 parts per million, after ten days
How it was run: as §1

[2] = system: two-spotted mite (adults and nymphal stages); test: Mite Foliage Spray Test (adults and nymphs); format: in vivo, Tetranychus urticae (Koch); conditions: Tetranychus urticae, foliar; Table III; ppm required for a 50 percent kill of mites; read-out: Miticidal LD50, Adult
How it was run: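 Adult and nymphal mites on potted bean plants, sprayed to run-off (100-110 ml at 40 psi, 30 s) with aqueous dilutions of acetone/alkylphenoxyethanol-emulsified compound; solvent-emulsifier blank as control. Held 4 days at 80±5° F, 50±5% RH, then motile forms counted (living = moves on prodding); values are ppm for 50% kill.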

Corn = test: Post-emergent herbicidal test, corn; format: in vivo; parameters: key: 1: no perceptible injury; 2: intermediate degrees of injury; 3: intermediate degrees of injury; 4: intermediate degrees of injury; 5: the plant was dead; conditions: Table III; 2500 parts per million, after ten days
How it was run: as §1

With `Cc1ccccc1C1=C(OC(=O)C(C)(C)C)c2ccccc2C1=O` [reference compound] the “Pre-emergent Herbicidal, Crabgrass” value (Crabgrass) was 2, the “Pre-emergent Herbicidal, Rye” value (Perennial rye grass) was 2 and the “Pre-emergent Herbicidal, Amaranthus” value [1] was 2. For the same molecule, the “Post Emergent Herbicidal, Tomato” value (Tomato) was 1, the “Post Emergent Herbicidal, Cotton” value (Cotton) was 1 and the “Post Emergent Herbicidal, Bean” value (Bean) was 1. The LC50 [2] was 100 µg/mL (≈ 312 µM) and the “Post Emergent Herbicidal, Corn” value (Corn) was 1.
